Results reported in the NIST ThermoML archive (doi:10.1021/je200668a).

Conditions: Liquid, Pulse Transmission

O [water]
Conditions	speed of sound [m/s]
267.88 K, 349500 kPa	1996.1
267.89 K, 199900 kPa	1745.2
273.01 K, 49300 kPa	1483.9
273.02 K, 200500 kPa	1762.6
273.03 K, 50300 kPa	1485.7
273.05 K, 100 kPa	1399.3
273.07 K, 49200 kPa	1484
273.07 K, 499800 kPa	2214.4
273.08 K, 200700 kPa	1763.5
273.08 K, 300600 kPa	1930.8
273.08 K, 399700 kPa	2080.1
273.09 K, 100 kPa	1399.8
273.09 K, 100000 kPa	1578.3
273.09 K, 150200 kPa	1671.7
273.09 K, 150400 kPa	1671.6
273.09 K, 349400 kPa	2006.9
273.1 K, 100 kPa	1398.7
273.1 K, 100500 kPa	1579.6
273.1 K, 250700 kPa	1849
273.1 K, 350400 kPa	2009
273.1 K, 450500 kPa	2150.3
273.1 K, 500400 kPa	2215.2
273.1 K, 550500 kPa	2281.3
273.1 K, 602100 kPa	2345.3
273.11 K, 200300 kPa	1762.7
273.11 K, 250300 kPa	1848.4
273.11 K, 250600 kPa	1848.7
273.11 K, 299900 kPa	1929.5
273.11 K, 550200 kPa	2281.4
273.12 K, 300000 kPa	1929.7
273.12 K, 399600 kPa	2079.5
273.12 K, 401000 kPa	2081.2
273.12 K, 449300 kPa	2149.5
273.12 K, 450200 kPa	2149.8
273.12 K, 550300 kPa	2276.8
273.12 K, 599500 kPa	2342
273.13 K, 150200 kPa	1672.1
273.13 K, 349700 kPa	2007
273.13 K, 499900 kPa	2214.6
273.18 K, 99800 kPa	1577.5
278.05 K, 100 kPa	1425.1
278.05 K, 500300 kPa	2220.9
278.07 K, 349300 kPa	2013.6
278.08 K, 200300 kPa	1775.7
278.08 K, 349600 kPa	2014.7
278.08 K, 400000 kPa	2086.4
278.08 K, 450900 kPa	2156.9
278.08 K, 602100 kPa	2346.8
278.09 K, 49200 kPa	1507.3
278.09 K, 400000 kPa	2087.5
278.09 K, 449700 kPa	2155.5
278.09 K, 500500 kPa	2221.3
278.09 K, 550800 kPa	2286.8
278.09 K, 700200 kPa	2439.8
278.1 K, 299900 kPa	1938.9
278.1 K, 400500 kPa	2089.8
278.1 K, 500400 kPa	2223.3
278.11 K, 561500 kPa	2297.2
278.11 K, 640200 kPa	2390.8
278.12 K, 200800 kPa	1777.1
278.12 K, 250200 kPa	1858.4
278.12 K, 299900 kPa	1939.6
278.12 K, 450800 kPa	2157.8
278.12 K, 600700 kPa	2347.6
278.12 K, 650000 kPa	2402.2
278.13 K, 48300 kPa	1506
278.13 K, 150100 kPa	1688.3
278.13 K, 200100 kPa	1776.7
278.13 K, 250100 kPa	1859.7
278.13 K, 250600 kPa	1859.7
278.13 K, 550600 kPa	2284.7
278.14 K, 150100 kPa	1689.2
278.15 K, 100 kPa	1424.8
278.15 K, 99600 kPa	1597.6
278.16 K, 99900 kPa	1599.9
278.16 K, 300500 kPa	1940
278.17 K, 349800 kPa	2017.6
278.17 K, 599300 kPa	2344.6
278.17 K, 651900 kPa	2402.7
278.17 K, 701300 kPa	2451
278.19 K, 109200 kPa	1614.9
278.19 K, 159900 kPa	1705.3
278.19 K, 700600 kPa	2446.5
278.24 K, 100 kPa	1425.6
288 K, 450300 kPa	2162.1
288.07 K, 300700 kPa	1953.9
288.07 K, 600900 kPa	2346.8
288.08 K, 100 kPa	1463.4
288.08 K, 50800 kPa	1549.6
288.08 K, 149800 kPa	1717.5
288.08 K, 250500 kPa	1878.9
288.08 K, 350800 kPa	2026.4
288.08 K, 400300 kPa	2094.6
288.08 K, 699800 kPa	2453.6
288.09 K, 50900 kPa	1549.8
288.09 K, 110900 kPa	1650.2
288.09 K, 160100 kPa	1733.4
288.09 K, 349600 kPa	2026.1
288.09 K, 599500 kPa	2345.8
288.1 K, 499500 kPa	2226.5
288.1 K, 499700 kPa	2225.7
288.11 K, 100 kPa	1461.4
288.11 K, 200800 kPa	1799.7
288.11 K, 299800 kPa	1952.9
288.11 K, 599900 kPa	2344.8
288.11 K, 700800 kPa	2455.2
288.12 K, 200300 kPa	1800.1
288.12 K, 250000 kPa	1878.5
288.12 K, 399800 kPa	2094.8
288.13 K, 100 kPa	1462.4
